{"source": "patent US20240115670A1", "about": "“FIBROBLAST ACTIVATION PROTEIN MODULATION TO ALTER IMMUNE CELL MIGRATION AND TUMOR INFILTRATION” (Georgetown University, priority 2021, published 2024)", "key": {"PANC-1 cells": {"test_system": "PANC-1 cells", "assay": "NK cell lysis of PANC-1 cells in 2D cocultures", "format": "cell-based, human"}, "NK92-GFP cells": {"test_system": "NK92-GFP cells", "assay": "NK92-GFP infiltration into cell clusters embedded in 3D matrix", "format": "cell-based, human", "settings": "10 uM Cpd60", "protocol": "(§1) 3D clusters were generated, embedded and stained as previously described. In brief, clusters were generated by plating 1,000 cells per well into 96-well Nunclon Sphera low adhesion plates (Thermo Scientific, cat #174925) and incubated overnight at 37° C. The following day, 6 clusters were embedded into an ECM containing 2,000 NK cells and plated into one well of a Nunc Lab-Tek II 8-well chamber slide (ThermoScientific, cat #154534PK). The ECM mixture consisted of 20% growth factor reduced Matrigel (Corning, 10-12 mg/ml stock concentration, #354230) and 80% rat tail collagen type I at 3 mg/mL (gibco, A1048301). Cells were either imaged for the following 24 hours every 30 minutes using the Zeiss LSM800 scanning confocal microscope or allowed to incubate overnight at 37° C. After 24 hours, cells in matrix were fixed with 5.4% formalin for 1 hour, permeabilized with 0.5% Triton-X and blocked using goat serum. For invasion assays, NK-92-GFP cells were stained with anti-GFP (ThermoFisher, cat #A-11122). For the cell lysis assays clusters were stained using anti-cleaved caspase 3 (Cell Signaling, cat #9661). Hoechst 33342, phalloidin, and secondary antibodies labeled with Alexa Fluor 488 nm, 546 nm, 647 nm, or 680 nm (Invitrogen) were used.\n3D clusters were generated, embedded and stained as previously described (34, 35). In brief, clusters were generated by plating 1,000 cells per well into 96-well Nunclon Sphera low adhesion plates (Thermo Scientific, cat #174925) and incubated overnight at 37° C. The following day, 6 clusters were embedded into an ECM containing 2,000 NK cells were plated into one well of a Nunc Lab-Tek II 8-well chamber slide (ThermoScientific, cat #154534PK). To ensure equal distribution of NK cells in Matrigel, the NK cells were first suspended in the Matrigel stock, which was then aliquoted for individual cluster embedding. The ECM mixture consisted of 20% growth factor reduced Matrigel (Corning, 10-12 mg/ml stock concentration, #354230) and 80% rat tail collagen type I at 3 mg/mL (Gibco, A1048301). […]"}, "PANC-1 cell clusters": {"test_system": "PANC-1 cell clusters", "assay": "NK cell lysis of PANC-1 clusters in 3D matrix (cleaved caspase 3)", "format": "cell-based, human", "settings": "10 uM Cpd60", "protocol": "as §1\n3D clusters were generated, embedded and stained as previously described (34, 35). […]"}, "FAP": {"test_system": "FAP", "settings": "mouse, in vivo; cited from earlier work"}}}
{"smiles": "N#C[C@@H]1CC(F)(F)CN1C(=O)CNC(=O)c1ccnc2ccccc12", "note": "[Cpd60]", "values": [{"measurement": "PANC-1 cell apoptosis in 2D cell cocultures with NK92", "setting": "PANC-1 cells", "result": "no effect"}, {"measurement": "NK92-GFP cell infiltration into PANC-1 clusters embedded in matrix", "setting": "NK92-GFP cells; 24-hour coculture", "result": "significantly reduced"}, {"measurement": "NK92-GFP cell infiltration into PSC clusters embedded in matrix", "setting": "NK92-GFP cells; 24-hour coculture", "result": "significantly reduced"}, {"measurement": "cluster size", "setting": "NK92-GFP cells; 80% collagen/20% Matrigel", "result": "no effect"}, {"measurement": "PANC-1 cell apoptosis (cleaved caspase 3) in 3D cultures with NK92", "setting": "PANC-1 cell clusters; NK92 cells", "result": "significantly reduced"}, {"measurement": "donor NK cell lysis of PANC-1 cells in 3D", "setting": "PANC-1 cell clusters; NK cells from two donors, normalized to cluster area", "result": "reduced"}, {"measurement": "FAP inhibition in murine models", "setting": "FAP", "result": "selectively and completely inhibits FAP"}, {"measurement": "effect on NK cell viability", "setting": "NK cell line", "result": "no effect"}]}
